Experimental data as given in patent US20220389477A1, “METHOD FOR EVALUATING ANTIBIOTIC SUSCEPTIBILITY” (Vrije Universiteit Brussel, priority 2019, published 2022).
Values after ≈ are worked out from the molar mass of the structure shown.

Experiments:
Type in all cases: cell-based
[1] = tested on: Pseudomonas aeruginosa culture; experiment: Broth microdilution (BMD)
[2] = tested on: Pseudomonas aeruginosa culture; experiment: Optical third-derivative MIC method, culture in broth; conditions: for MIC: Pseudomonas aeruginosa
Source text: (§1) The method of FIG. 1 starts at a time equal to zero, t0 (1). Preferably, said t0 is the moment a pure bacteria culture is finished being prepared. Alternatively, said t0 is the moment all wells contain both said bacteria culture and said antimicrobial drug. After the starting of the experiment each well is periodically illuminated with a light source and the intensity of the transmitted light is detected with a photodetector (2). Preferably, each well is illuminated and the intensity of the transmitted light is detected every hour (2). More preferably, each well is illuminated and the intensity of the transmitted light is detected every 5 to 15 min. After a predetermined time length, preferably after 4 hours, a first, a second and a third derivative of said measured intensity is calculated (3) in a first and a second time frame for each well. Preferably, said second time frame is the last measured time frame after the test has been running for said predetermined time length, and said first time frame is the time frame preceding the second time frame. More preferably, said first time frame is between two and three hours and said second time frame is between three and four hours. After the calculation of said derivatives, said first derivative in said second time frame of said reference well is compared to a growth speed threshold value (4). Preferably, said growth speed threshold value is 0.166 (4). If said first derivative in said second time frame of said reference well is larger than or equal to said growth speed threshold value said bacteria culture is classified as Type I (4). If said first derivative in said second time frame of said reference well is smaller than said growth speed threshold value said bacteria culture is classified as Type II (4). Subsequently, independent of the classification of the bacteria culture according to the two types, the method comprises the following steps which are performed for each well or for all wells except said reference well. Both said first and said second time frames are evaluated to see if there is an inflection point present in the second derivative in said first and/or said second time frame (5).
(§2) If said first and/or said second time frame comprise said inflection point than said third derivative in said first time frame is compared to said third derivative in said second time frame (6). If said third derivative in said first time frame is larger than said third derivative in said second time frame, then said first time frame and said second time frame are selected as a first and second time frame to be used in a minimal inhibitory concentration determination method (10). If said third derivative in said first time frame is not larger than said third derivative in said second time frame, then said well is illuminated again after a certain time period, preferably an hour, more preferably 5 to 15 min after said predetermined time length said, with a light source and the intensity of the transmitted light is detected with a photodetector forming a new time frame subsequent to said second time frame (7). A third derivative, and possibly also a first and/or a second derivative, is calculated in said new time frame (7). Further, in step (7) a new first time frame is put equal to said second time frame and a new second time frame to equal to said new time frame. Subsequently, said third derivative in said new first time frame is compared to said third derivative in said new second time frame (8). If said derivative in said new first time frame is larger than said third derivative in said new second time frame, then said new first time frame and said new second time frame are selected as a first and second time frame to be used in a minimal inhibitory concentration determination method (10). […]

Streptococcus Pneumoniae [3] = experiment: E-test, broth + horse blood trial
Procedure: Tables 14 and 15 show the results of experiment whereby a bacteria culture is grown in blood instead of broth. The experiments of Table 14 were conducted by illuminating the light-transmissive wells with a light having a wavelength of 635 nm. The experiments of Table 15 were conducted by illuminating the light-transmissive wells with a light having a wavelength of 650 nm. […] The determination of the best wavelength may or may not be based on the commercial availability of the spectral line. The choice of the optimal wavelength may or may not be determined by calculating the absorbance for various wavelengths. The choice of the optimal wavelength can also be based on the combination of the comparison with the other two methods, the commercial availability and on the calculation of the absorbance for various wavelengths.

Streptococcus Pneumoniae [4] = experiment: BMD, broth + horse blood trial
Streptococcus Pneumoniae [5] = experiment: Optical third-derivative MIC method (MICSTRIP), broth + horse blood; conditions: for MICSTRIP (MIC): broth + horse blood
Source text: as §1, §2

[6] = tested on: Pseudomonas aeruginosa culture; experiment: E-test; conditions: culture PA/2472

In the case of `CO/N=C(\C(=O)N[C@@H]1C(=O)N2C(C(=O)[O-])=C(C[N+]3(C)CCCC3)CS[C@H]12)c1csc(N)n1` [cefepime], the MIC ([1]; culture PA/2467) is reported as 16 µg/mL (≈ 33.3 µM), the MIC ([2]; PA/2467, 5 h-6 h, only time frame, omitted from determination (Type II), read-out: MIC (25%)) is reported as 8 µg/mL (≈ 16.6 µM) and the MIC ([2]; PA/2467, 5 h-6 h, only time frame, read-out: MIC (40%)) is reported as 8 µg/mL (≈ 16.6 µM). It also gave an MIC ([2]; PA/2467, 5 h-6 h, only time frame, read-out: MIC (60%)) of 4 µg/mL (≈ 8.32 µM), an MIC ([2]; PA/2467, 5 h-6 h, only time frame, read-out: MIC (75%)) of 4 µg/mL (≈ 8.32 µM) and an MIC ([2]; PA/2467, FIG. 5F, overall conclusion, read-out: MIC value determined by the method) of 8 µg/mL (≈ 16.6 µM).

For `CO/N=C(\C(=O)N[C@@H]1C(=O)N2C(C(=O)O)=C(CSc3nc(=O)c(=O)[nH]n3C)CS[C@H]12)c1csc(N)n1` [Ceftriaxone], the E-test (MIC) (Streptococcus Pneumoniae [3]; strain 2532) was no more than 0.16 µg/mL, the “HR E-test” value (Streptococcus Pneumoniae [3]; strain 2532) was “no” and the E-test (MIC) (Streptococcus Pneumoniae [3]; strain 2543) was 0.125 µg/mL. For the same compound, the “HR E-test” value (Streptococcus Pneumoniae [3]; strain 2543) was “no”, the E-test (MIC) (Streptococcus Pneumoniae [3]; strain 2544) was 0.024 µg/mL and the “HR E-test” value (Streptococcus Pneumoniae [3]; strain 2544) was “no”. For the same compound, the E-test (MIC) (Streptococcus Pneumoniae [3]; strain ATCC 49619) was 0.047 µg/mL, the “HR E-test” value (Streptococcus Pneumoniae [3]; strain ATCC 49619) was “no” and the BMD (MIC) (Streptococcus Pneumoniae [4]; strain 2532) was 0.008 µg/mL. It also gave a BMD (MIC) (Streptococcus Pneumoniae [4]; strain 2543) of 0.256 µg/mL, a BMD (MIC) (Streptococcus Pneumoniae [4]; strain 2544) of 0.064 µg/mL and a BMD (MIC) (Streptococcus Pneumoniae [4]; strain ATCC 49619) of 0.064 µg/mL. It also gave an MICSTRIP (MIC) (Streptococcus Pneumoniae [5]; strain 2532, 635 nm) of 0.016 µg/mL, an MICSTRIP (MIC) (Streptococcus Pneumoniae [5]; strain 2532, 650 nm) of 0.016 µg/mL and an MICSTRIP (MIC) (Streptococcus Pneumoniae [5]; strain 2543, 635 nm) of 0.256 µg/mL. It also gave an MICSTRIP (MIC) (Streptococcus Pneumoniae [5]; strain 2543, 650 nm) of 0.256 µg/mL, an MICSTRIP (MIC) (Streptococcus Pneumoniae [5]; strain 2544, 635 nm) of 0.064 µg/mL and an MICSTRIP (MIC) (Streptococcus Pneumoniae [5]; strain 2544, 650 nm) of 0.064 µg/mL. For the same compound, the MICSTRIP (MIC) (Streptococcus Pneumoniae [5]; strain ATCC 49619, 635 nm) was 0.032 µg/mL, the “HR MICSTRIP” value (Streptococcus Pneumoniae [5]; strain ATCC 49619, 650 nm) was “no (If the ratio of the MIC value in the second time frame over the MIC value in the first time frame is lower than or equal to 4 then the ratio is labelled not to be heteroresistant)” and the MICSTRIP (MIC) (Streptococcus Pneumoniae [5]; strain ATCC 49619, 650 nm) was greater than 16 µg/mL.

`CC1(C)S[C@@H]2[C@H](NC(=O)Cc3ccccc3)C(=O)N2[C@H]1C(=O)O` [Benzyl-penicilline] was tested, and the “HR E-test” value (Streptococcus Pneumoniae [3]; strain 2532) was “no”, the E-test (MIC) (Streptococcus Pneumoniae [3]; strain 2543) was 1.5 µg/mL and the “HR E-test” value (Streptococcus Pneumoniae [3]; strain 2543) was “no”. The E-test (MIC) (Streptococcus Pneumoniae [3]; strain 2544) was 0.1 µg/mL, the “HR E-test” value (Streptococcus Pneumoniae [3]; strain 2544) was “no” and the E-test (MIC) (Streptococcus Pneumoniae [3]; strain ATCC 49619) was 0.25 µg/mL. The “HR E-test” value (Streptococcus Pneumoniae [3]; strain ATCC 49619) was “no”, the BMD (MIC) (Streptococcus Pneumoniae [4]; strain 2532) was 0.016 µg/mL and the BMD (MIC) (Streptococcus Pneumoniae [4]; strain 2543) was 2 µg/mL. It also gave a BMD (MIC) (Streptococcus Pneumoniae [4]; strain 2544) of 0.256 µg/mL, a BMD (MIC) (Streptococcus Pneumoniae [4]; strain ATCC 49619) of 0.256 µg/mL and an MICSTRIP (MIC) (Streptococcus Pneumoniae [5]; strain 2532, 635 nm) of 0.016 µg/mL. For the same compound, the MICSTRIP (MIC) (Streptococcus Pneumoniae [5]; strain 2532, 650 nm) was 0.016 µg/mL, the “HR MICSTRIP” value (Streptococcus Pneumoniae [5]; strain 2543, 635 nm) was “no (If the ratio of the MIC value in the second time frame over the MIC value in the first time frame is lower than or equal to 4 then the ratio is labelled not to be heteroresistant)” and the MICSTRIP (MIC) (Streptococcus Pneumoniae [5]; strain 2543, 635 nm) was 1 µg/mL. For the same compound, the “HR MICSTRIP” value (Streptococcus Pneumoniae [5]; strain 2543, 650 nm) was “no (If the ratio of the MIC value in the second time frame over the MIC value in the first time frame is lower than or equal to 4 then the ratio is labelled not to be heteroresistant)”, the MICSTRIP (MIC) (Streptococcus Pneumoniae [5]; strain 2543, 650 nm) was 1 µg/mL and the MICSTRIP (MIC) (Streptococcus Pneumoniae [5]; strain 2544, 635 nm) was 0.256 µg/mL. The MICSTRIP (MIC) (Streptococcus Pneumoniae [5]; strain 2544, 650 nm) was 0.256 µg/mL, the “HR MICSTRIP” value (Streptococcus Pneumoniae [5]; strain ATCC 49619, 635 nm) was “no (If the ratio of the MIC value in the second time frame over the MIC value in the first time frame is lower than or equal to 4 then the ratio is labelled not to be heteroresistant)” and the MICSTRIP (MIC) (Streptococcus Pneumoniae [5]; strain ATCC 49619, 635 nm) was 0.256 µg/mL. The “HR MICSTRIP” value (Streptococcus Pneumoniae [5]; strain ATCC 49619, 650 nm) was “no (If the ratio of the MIC value in the second time frame over the MIC value in the first time frame is lower than or equal to 4 then the ratio is labelled not to be heteroresistant)” and the MICSTRIP (MIC) (Streptococcus Pneumoniae [5]; strain ATCC 49619, 650 nm) was 0.256 µg/mL.

In the case of `CC(C)(O/N=C(\C(=O)N[C@@H]1C(=O)N2C(C(=O)[O-])=C(C[n+]3ccccc3)CS[C@H]12)c1csc(N)n1)C(=O)O` [ceftazidime], the MIC ([1]; culture PA/2472) is reported as 32 µg/mL (≈ 58.5 µM), the “heteroresistance determined by the method” value ([2]; PA/2472, FIG. 5E, overall conclusion) is reported as “not heteroresistant” and the “HR? at MIC (40%)” value ([2]; PA/2472, ratio MIC T2/T1) is reported as “no (If the ratio of the MIC value in the second time frame over the MIC value in the first time frame is lower than or equal to 4 then the ratio is labelled not to be heteroresistant)”. The “HR? at MIC (60%)” value ([2]; PA/2472, ratio MIC T2/T1) was “no (If the ratio of the MIC value in the second time frame over the MIC value in the first time frame is lower than or equal to 4 then the ratio is labelled not to be heteroresistant)”, the “HR? at MIC (75%)” value ([2]; PA/2472, ratio MIC T2/T1) was “no (If the ratio of the MIC value in the second time frame over the MIC value in the first time frame is lower than or equal to 4 then the ratio is labelled not to be heteroresistant)” and the “HR? at MIC (25%)” value ([2]; PA/2472, ratio MIC T2/T1, omitted (Type II)) was “no (If the ratio of the MIC value in the second time frame over the MIC value in the first time frame is lower than or equal to 4 then the ratio is labelled not to be heteroresistant)”. It also gave an MIC ([2]; PA/2472, 3 h-4 h, omitted from determination (Type II), read-out: MIC (25%) T1) of 64 µg/mL (≈ 117 µM), an MIC ([2]; PA/2472, 3 h-4 h, read-out: MIC (40%) T1) of 32 µg/mL (≈ 58.5 µM) and an MIC ([2]; PA/2472, 3 h-4 h, read-out: MIC (60%) T1) of 32 µg/mL (≈ 58.5 µM). For the same compound, the MIC ([2]; PA/2472, 3 h-4 h, read-out: MIC (75%) T1) was 32 µg/mL (≈ 58.5 µM), the MIC ([2]; PA/2472, 5 h-6 h, omitted from determination (Type II), read-out: MIC (25%) T2) was 64 µg/mL (≈ 117 µM) and the MIC ([2]; PA/2472, 5 h-6 h, read-out: MIC (40%) T2) was 32 µg/mL (≈ 58.5 µM). For the same compound, the MIC ([2]; PA/2472, 5 h-6 h, read-out: MIC (60%) T2) was 32 µg/mL (≈ 58.5 µM), the MIC ([2]; PA/2472, 5 h-6 h, read-out: MIC (75%) T2) was 32 µg/mL (≈ 58.5 µM) and the MIC ([2]; PA/2472, FIG. 5E, overall conclusion, read-out: MIC value determined by the method) was 32 µg/mL (≈ 58.5 µM). For the same compound, the MIC ([6]; Pseudomonas aeruginosa) was 32 µg/mL (≈ 58.5 µM) and the “HR? (E-test)” value [6] was “no”.
